The compounds below were run against human Kv1.3 (Homo sapiens, UniProt P22001) (assay: IonWorks automated patch clamp assay of inhibitory activity against Kv1.3). Details: automated patch clamp method; CHO-K1 cells stably expressing human Kv1.3.
Type: cell-based
Procedure: I. IonWorks Automated Patch Clamp Assay of Inhibitory Activity Against Kv1.3
The principle and method for Kv1.3 IonWorks assay can be found in Schroeder et al. [Schroeder et al. J Biomol Screen 2003, 8(1):50-64]
Inhibitory activity of the compounds against Kv1.3 was assessed using a CHO-K1 recombinant cell line stably expressing human Kv1.3 (Charles River, Calif.). The cells were cultured in an F-12K culture medium containing 5% calf serum (Invitrogen, Carlsbad. Calif.) in an incubator at 37° C. and under air humidity with 6% CO2. Prior to be fed in the IonWorks system, the adherent cells were treated with Versene at 37° C. for 6-7 min. After gently beating the culture flask, the cells were re-suspended in a PBS phosphate buffer, and then were centrifuged at 50×g for 4 min. After a short grinding, the cells were eventually re-suspended in an external recording solution at a density of approximately 1×10^6/mL.
The compounds were dissolved in DMSO to formulate a final assay concentration of 300× on the master plate. The final gradient assay concentrations were […], 0.096, 0.048, 0.24, 1.2, 6 and 30 μM. All 300× stock solutions of each compound in DMSO were transferred to a 384-well plate with 2 μl per well. The plates were sealed and stored at −80° C. until the day of assay.
On the day of assay, the plates were each thawed at room temperature. After centrifugation, 198 μl of the external recording solution (with the components of: 130 mM Na-Gluconate, 20 mM NaCl, 4 mM KCl, 1 mM MgCl2, 1.8 mM CaCl2, 5 mM Glucose and 10 mM HEPES, pH7.3) was added and mixed thoroughly. This step provided a 1:100 dilution for the compounds. After addition of cells to IonWorks, a further 1:3 dilution was carried out, resulting in a total dilution of 1:300. At least 8 wells were reserved as blank control on each of the plates, i.e., containing only 0.3% DMSO. In addition, at least 8 wells were reserved as positive control to detect the specificity to cell signals. Fluoxetine, a compound as the positive control, was assayed at its maximum blocking concentration (100 μm) and secondary maximum blocking concentration (10 μm). In addition, an internal recording solution used in the assay (with the components of: 100 mM K-gluconate, 40 mM KCl, 1 mM MgCl2, 1 mM EGTA and 10 mM HEPES, pH7.3) contained Amphotericin B at a final concentration of 200 μg/mL to gain current channels inside the cells. The osmotic pressure of the solution was adjusted with sucrose.
Experimental procedures were carried out following the protocols as set by IonWorks Quattro system (Molecular Devices, San Jose, CA). The current of human Kv1.3 was elicited to 0 millivolt (mV) for four times by a pulse lasting 1 second. A potential of −80 mV was maintained between pulses, for 5 seconds. First, a early voltage application program was started in the IonWorks Quattro system, and then the compounds were added and incubated for 600 seconds. Next, a late voltage application program was started until completion of all assays.
The maximum peak outward currents both before and after addition of the compounds as well as the average tail current elicited when the fourth pulse rose to 0 mV were measured. The inhibitory activity of the compounds against Kv1.3 can be calculated by dividing the measured current amplitude after addition of the compounds by the measured current amplitude before addition of the compounds.
All data was calibrated by a data filtration program of the IonWorks Quattro system. The filtration standard was that: seal quality >30 MΩ, decrease of seal resistance <50% and current amplitude >200 pA.

human Kv1.3, sequence (P22001 whole entry): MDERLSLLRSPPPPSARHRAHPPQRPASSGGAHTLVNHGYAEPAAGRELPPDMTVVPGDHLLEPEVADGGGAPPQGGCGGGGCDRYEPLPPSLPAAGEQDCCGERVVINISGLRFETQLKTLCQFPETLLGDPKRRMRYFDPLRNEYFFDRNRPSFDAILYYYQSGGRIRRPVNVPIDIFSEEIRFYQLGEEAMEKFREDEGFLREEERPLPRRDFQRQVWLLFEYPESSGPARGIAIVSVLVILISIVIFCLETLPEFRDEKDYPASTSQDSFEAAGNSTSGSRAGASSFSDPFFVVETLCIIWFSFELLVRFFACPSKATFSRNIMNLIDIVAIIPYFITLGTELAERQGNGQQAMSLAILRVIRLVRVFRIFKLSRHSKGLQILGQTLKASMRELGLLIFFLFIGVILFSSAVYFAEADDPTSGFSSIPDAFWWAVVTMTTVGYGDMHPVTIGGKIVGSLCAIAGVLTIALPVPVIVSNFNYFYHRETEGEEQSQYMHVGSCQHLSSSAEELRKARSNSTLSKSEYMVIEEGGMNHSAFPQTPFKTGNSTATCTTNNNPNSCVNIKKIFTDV

| Compound | IC50 |
| --- | --- |
| CC(C)CCS(=O)(=O)N(Cc1ccc(F)cc1)c1ccc(N2CCN(C(=O)N(C)C)CC2)c(C#N)c1 [Compound 39, 4-(2-cyano-4-((N-(4-fluorobenzyl)-3-methylbutyl)sulfonamido)phenyl)-N,N-dimethylpiperazin-1-formamide] | 155 nM |
| CCCS(=O)(=O)N(Cc1ccc(F)cc1)c1ccc(N2CCN(C(=O)OCC)CC2)c(C#N)c1 [Compound 9, ethyl 4-(2-cyano-4-(N-(4-fluorobenzyl)propanesulfonamido)phenyl)piperazin-1-formate] | 134 nM |
| CCCS(=O)(=O)N(Cc1ccncn1)c1ccc(N2CCN(C(=O)N(C)C)CC2)c(C#N)c1 [Compound 42, 4-(2-cyano-4-(N-(pyrimidin-4-ylmethyl)propanesulfonamido)phenyl)-N,N-dimethylpiperazin-1-formamide] | 167 nM |
| CCCS(=O)(=O)N(Cc1cccc(F)c1)c1ccc(N2CCN(C(=O)OCC)CC2)c(C#N)c1 [Compound 23, Ethyl 4-(2-cyano-4-(N-(3-fluorobenzyl)propanesulfonamido)phenyl) piperazin-1-formate] | 176 nM |
| CN1CCCN(c2ccc(N(Cc3ccccc3)S(=O)(=O)c3ccccc3)cc2C#N)C1=O [Compound 17, N-benzyl-N-(3-cyano-4-(3-methyl-2-oxotetrahydropyrimidin-1(2H)-yl)phenyl)benzenesulfonamide] | 190 nM |
| CCCN(c1ccc(N2CCN(C(=O)OCC)CC2)c(C#N)c1)S(=O)(=O)c1ccc(F)cc1 [Compound 8, Ethyl 4-(2-cyano-4-((4-fluoro-N-propylphenyl)sulfonamido)phenyl)piperazin-1-formate] | 9300 nM |
| CCCS(=O)(=O)N(Cc1cscn1)c1ccc(N2CCN(C(=O)OCC)CC2)c(C#N)c1 [Compound 34, Ethyl 4-(2-cyano-4-(N-(thiazol-4-ylmethyl)propanesulfonamido)phenyl) piperazin-1-formate] | 645 nM |
| CCCS(=O)(=O)N(Cc1cccc(OC)c1)c1ccc(N2CCN(C(=O)OCC)CC2)c(C#N)c1 [Compound 26, Ethyl 4-(2-cyano-4-(N-(3-methoxybenzyl)propanesulfonamido)phenyl) piperazin-1-formate] | 420 nM |
| CCCS(=O)(=O)N(Cc1ccc(OC)cc1)c1ccc(N2CCN(S(=O)(=O)N(C)C)CC2)c(C#N)c1 [Compound 45, 4-(2-cyano-4-(N-(4-methoxybenzyl)propanesulfonamido)phenyl)-N,N-dimethylpiperazin-1-sulfonamide] | 224 nM |
| CCCS(=O)(=O)N(Cc1ccccc1)c1ccc(N2CCN(C(=O)OCC)CC2)c(C#N)c1 [Compound 22, Ethyl 4-(4-(N-benzylpropanesulfonamido) 2-cyanophenyl)piperazin-1-formate] | 333 nM |
| CCCS(=O)(=O)N(Cc1ccnn1C)c1ccc(N2CCN(C(=O)OCC)CC2)c(C#N)c1 [Compound 36, Ethyl 4-(2-cyano-4-(N-((1-methyl-1H-pyrazol-5-yl)methyl)propanesulfon-amido)phenyl)piperazin-1-formate] | 130 nM |
| CN(C)CCOC1CCN(c2ccc(N(Cc3ccccc3)S(=O)(=O)c3ccccc3)cc2C#N)CC1 [Compound 18, N-benzyl-N-(3-cyano-4-(4-(2-(dimethylamino)ethoxy)piperidin-1-yl)phenyl)benzenesulfonamide] | 101 nM |
| CCCS(=O)(=O)N(Cc1ccncn1)c1ccc(N2CCN(C(=O)OCC)CC2)c(C#N)c1 [Compound 31, Ethyl 4-(2-cyano-4-(N-(pyrimidin-4-ylmethyl)propanesulfonamido)phenyl) piperazin-1-formate] | 412 nM |
| CCCS(=O)(=O)N(Cc1ccc(F)cc1)c1ccc(N2CCC(O)CC2)c(C#N)c1 [Compound 19, N-(3-cyano-4-(4-hydroxypiperidin-1-yl)phenyl)-N-(4-fluorobenzyl)propane-1-sulfonamide] | 130 nM |
| CCOC(=O)NC1CCN(c2ccc(N(Cc3ccccc3)S(=O)(=O)c3ccccc3)cc2C#N)CC1 [Compound 14, ethyl 1-(4-(N-benzylbenzenesulfonamido)-2-cyanophenyl)piperidin-4-yl carbamate] | 129 nM |
| N#Cc1cc(N(Cc2ccccc2)S(=O)(=O)c2ccccc2)ccc1N1CCC(O)CC1 [Compound 6, N-benzyl-N-(3-cyano-4-(4-hydroxypiperidin-1-yl)phenyl)benzenesulfonamide] | 193 nM |
| CCCS(=O)(=O)N(Cc1ccc(F)cc1OC)c1ccc(N2CCN(C(=O)OCC)CC2)c(C#N)c1 [Compound 30, Ethyl 4-(2-cyano-4-(N-(4-fluoro-2-methoxybenzyl)propanesulfonamido)phenyl)piperazin-1-formate] | 288 nM |
| CCCS(=O)(=O)N(Cc1ccccc1F)c1ccc(N2CCN(C(=O)OCC)CC2)c(C#N)c1 [Compound 25, Ethyl 4-(2-cyano-4-(N-(2-fluorobenzyl)propanesulfonamido)phenyl) piperazin-1-formate] | 321 nM |
| N#Cc1cc(N(Cc2ccccc2)S(=O)(=O)c2ccccc2)ccc1N1CCC(=O)CC1 [Compound 5, N-benzyl-N-(3-cyano-4-(4-oxopiperidin-1-yl)phenyl) benzenesulfonamide] | 186 nM |
| N#Cc1cc(N(Cc2ccc(F)cc2)S(=O)(=O)c2ccccc2)ccc1N1CCOCC1 [Compound 10, N-(3-cyano-4-morpholinylphenyl)-N-(4-fluorobenzyl) benzenesulfonamide] | 98 nM |

The next lines start with the values.

| IC50 | Compound |
| --- | --- |
| 356 nM | CN(C)S(=O)(=O)N1CCN(c2ccc(N(Cc3ccnn3C)S(=O)(=O)c3ccc(F)cc3)cc2C#N)CC1 [Compound 46, 4-(2-cyano-4-((4-fluoro-N-((1-methyl-1H-pyrazol-5-yl)methyl)phenyl)sulfonamido)phenyl)-N,N-dimethylpiperazin-1-sulfonamide] |
| 160 nM | CCCS(=O)(=O)N(Cc1ccc(F)cc1)c1ccc(N2CCN(C(=O)OCC)CC2)c(C(F)(F)F)c1 [Compound 49] |
| 291 nM | CCCS(=O)(=O)N(Cc1ccc(F)cc1)c1ccc(OC2CCN(C(C)=O)CC2)c(C#N)c1 [Compound 53, N-(4-((1-acetylpiperidin-4-yl)oxy)-3-cyanophenyl)-N-(4-fluorobenzyl) propanesulfonamide] |
| 370 nM | CCCS(=O)(=O)N(Cc1ccc(F)cc1)c1ccc(OC2CCNCC2)c(C#N)c1 [Compound 50, N-(3-cyano-4-(piperidin-4-yloxy)phenyl)-N-(4-fluorobenzyl) propanesulfonamide] |
| 389 nM | CCCS(=O)(=O)N(Cc1ccc(F)cc1)c1ccc(SC2CCN(C(C)=O)CC2)c(C#N)c1 [Compound 54, N-(4-((1-acetylpiperidin-4-yl)thio)-3-cyanophenyl)-N-(4-fluorobenzyl) propanesulfonamide] |
| 254 nM | CCCS(=O)(=O)N(Cc1ccc(F)cc1)c1ccc(SC2CCN(C=O)CC2)c(C#N)c1 [Compound 57, N-(4-((1-formylpiperidin-4-yl)thio)-3-cyanophenyl)-N-(4-fluorobenzyl) propanesulfonamide] |
| 145 nM | CN(C)S(=O)(=O)N1CCN(c2ccc(N(Cc3ccc(F)cc3)S(=O)(=O)c3cccnc3)cc2C#N)CC1 [Compound 48, 4-(2-cyano-4-(-N-(4-fuorophenyl)pyridin-3-sulfonamido)phenyl)-N,N-dimethylpiperazin-1-sulfonamide] |
| 412 nM | CCCS(=O)(=O)N(Cc1ccc(F)cc1)c1ccc(SC2CCNCC2)c(C#N)c1 [Compound 51, N-(3-cyano-4-(piperidin-4-ylthio)phenyl)-N-(4-fluorobenzyl) propanesulfonamide] |
| 250 nM | CCCS(=O)(=O)N(Cc1ccc(F)cc1)c1ccc(OC2CCN(C=O)CC2)c(C#N)c1 [Compound 56, N-(4-((1-formylpiperidin-4-yl)oxy)-3-cyanophenyl)-N-(4-fluorobenzyl) propanesulfonamide] |

Source: patent US11993576B2, “N-benzyl-N-arylsulfonamide derivative and preparation and use thereof” (Hangzhou Yirui Pharmaceutical Technology Co., Ltd, priority 2019, dated 2024)
